Laboratory results: US11649476B2, “Flow cytometry data processing for antimicrobial agent sensibility prediction” (priority 2016, dated 2023)

What was measured:
[1] = test system: Enterobacteriaceae strains; assay: FCM analysis of Ceftazidime-treated strains (DiBAC4(3) marker), fluorescence distribution; type: cell-based; settings: 128 strains, 1, 2, 4 and 8 mg/L Ceftazidime; inferred from low performance of quantile models
Method: In a next step 22, liquid samples with different concentrations {C1, . . . , Cm} of the antibiotic are prepared for each of the selected strains Si, where C1=0 (no antibiotic) and m>2 is the number of non-null concentrations of antibiotic. Said concentrations are stored in the computer unit 14. […] After 2 h growth at 35° C. with shaking at 180 rpm, the resulting exponential phase bacterial culture is normalized at 0.5 McF and used to inoculate wells of a microtiterplate supplemented with antibiotics at the different concentrations {C1, . . . , Cm}. After 1 h of incubation at 35° C., a membrane depolarization fluorescent marker, for example (Bis-(1,3-Dibutylbarbituric Acid)Trimethine Oxonol), also known as “DiBAC4(3)”, is added to the wells at a final concentration of 0.5 μg/ml. An additional 15 min incubation with the marker is at 35° C. is then carried out. […]
In the step 24, a FCM acquisition is performed for each sample by means of the flow-cytometer 12 and the corresponding FSC, SSC and fluorescence distributions stored in the computer unit 14. For each strain Si, and for each concentration C1, a FSC distribution “FSCi,j”, a SSC distribution “SSCi,j” and a fluorescence distribution “FIi,j” are thus stored in the computer unit 14, e.g. in the form of digital vectors. […]

[2] = test system: Enterobacteriaceae strains; assay: FCM fluorescence distribution profiles of Gentamicin-treated strains (DiBAC4(3) membrane depolarization marker); type: cell-based
Method: In a next step 22, liquid samples with different concentrations {C1, . . . , Cm} of the antibiotic are prepared for each of the selected strains Si, where C1=0 (no antibiotic) and m>2 is the number of non-null concentrations of antibiotic. Said concentrations are stored in the computer unit 14. […] After 2 h growth at 35° C. with shaking at 180 rpm, the resulting exponential phase bacterial culture is normalized at 0.5 McF and used to inoculate wells of a microtiterplate supplemented with antibiotics at the different concentrations {C1, . . . , Cm}. After 1 h of incubation at 35° C., a membrane depolarization fluorescent marker, for example (Bis-(1,3-Dibutylbarbituric Acid)Trimethine Oxonol), also known as “DiBAC4(3)”, is added to the wells at a final concentration of 0.5 μg/ml. An additional 15 min incubation with the marker is at 35° C. is then carried out. The concentrations {C1, . . . , Cm} are chosen such that the range [BPS, BPR] is included or equal to the range [C2, Cm] of non-null concentrations.
In the step 24, a FCM acquisition is performed for each sample by means of the flow-cytometer 12 and the corresponding FSC, SSC and fluorescence distributions stored in the computer unit 14. For each strain Si, and for each concentration C1, a FSC distribution “FSCi,j”, a SSC distribution “SSCi,j” and a fluorescence distribution “FIi,j” are thus stored in the computer unit 14, e.g. in the form of digital vectors.
The experiment was performed as described in the following lines: • A panel of 107 Enterobacteriaceae strains (FIG. 6: Distribution of the panel of strains according to their MICs for Gentamicin) were treated with 0, 2, 4 and 8 mg/L of Gentamicin following the protocol described in FIG. 3 and analyzed by FCM.

| Compound | fluorescence distribution of treated strains [1] | fluorescence distribution profile vs untreated samples ([2]; intermediate phenotype strains, 2 mg/L Gentamicin) | fluorescence distribution profile vs untreated samples ([2]; intermediate phenotype strains, 4 and 8 mg/L Gentamicin) | resistant strains that did not show any shift in fluorescence (profile A) ([2]; resistant phenotype strains, all concentrations tested (2, 4, 8 mg/L)) | fluorescence distribution profile vs untreated samples ([2]; susceptible phenotype strains, 2 mg/L Gentamicin, panel of 107 strains, approximately evaluated) | fluorescence distribution profile vs untreated samples ([2]; susceptible phenotype strains, 4 and 8 mg/L Gentamicin, panel of 107 strains, approximately evaluated) |
| --- | --- | --- | --- | --- | --- | --- |
| CC(C)(O/N=C(\C(=O)N[C@@H]1C(=O)N2C(C(=O)[O-])=C(C[n+]3ccccc3)CS[C@H]12)c1csc(N)n1)C(=O)O [Ceftazidime] | the majority of strains treated with Ceftazidime exhibit homogeneous distributions of fluorescence |  |  |  |  |  |
| Gentamicin |  | more strains showed no shift of fluorescence (profile A) | equal number of strains exhibited either no shift (profile A) or heterogeneous fluorescence distribution (profile B) | 36 out of 37 | equal number of strains exhibited either no shift (profile A) or heterogeneous fluorescence distributions (profile B) | the majority of strains exhibited an heterogeneous fluorescence distribution (profile B) |
